US20260265184A1, “DEGRADABLE CROSSLINKING AGENT” (NAGASE CHEMTEX CORPORATION, priority 2023, published 2026)

What was measured:
Type in all cases: physicochemical
[1] = Solvent solubility evaluation of the degradable cross-linking agents; conditions: for Solvent solubility, Isopropanol / Solvent solubility, Methanol / Solvent solubility, Methylisobutyl ketone / Solvent solubility, N-methylpyrrolidone / Solvent solubility, Propylene glycol monomethyl ether: 0.5 mL solvent added to 2 mg, visual, room temperature, then heat gun; for Solvent solubility, overall assessment in words: summary over the solvents of Tables 1 and 2
From the text: The degree of dissolution was visually observed. When an undissolved portion remained at room temperature, the mixture was sufficiently heated with a heat gun and then visually observed again. The scoring was as follows: 3 points for those that completely dissolved at room temperature; 2 points for those in which an undissolved portion remained at room temperature but completely dissolved after heating; 1 point for those in which a slight amount of an undissolved portion remained after heating; and 0 points for those in which a large amount of an undissolved portion remained after heating. Here, the degradable cross-linking agents in liquid form were evaluated for compatibility with the solvents.

[2] = Degradation of the compound on adding sodium hypochlorite aqueous solution; conditions: 3% sodium hypochlorite aqueous solution added to the compound
[3] = Solubility of the degradable cross-linked product (cured film) in water / organic solvent
Procedure: The solution was applied onto a glass substrate to give a cured film thickness of 0.1 μm, and then dried and cured at 150° C. for 10 minutes to obtain a degradable cross-linked product.

[4] = Degradation of the degradable cross-linked product on immersion in oxidizing agent solution
Procedure: The method for degrading a degradable cross-linked product according to the present invention includes bringing the degradable cross-linked product into contact with an aqueous solution containing an oxidizing agent at 100° C. or lower.
The conditions for bringing the degradable cross-linked product into contact with the aqueous solution containing the oxidizing agent include a temperature of 100° C. or lower, preferably of 15° C. to 50° C. The conditions preferably include a duration of 60 minutes or shorter, more preferably 10 minutes or shorter. If necessary, the cross-linked product may be shaken or stirred during the reaction with the oxidizing agent. Non-limiting specific examples of the method for bringing the degradable cross-linked product into contact with the aqueous solution containing the oxidizing agent include immersing the degradable cross-linked product in the aqueous solution containing the oxidizing agent, or spraying or adding dropwise the aqueous solution containing the oxidizing agent onto the degradable cross-linked product.
An amount of 0.3 g of the compound of formula (A), 0.1 g of poly(methylhydrosiloxane), and 4.0 mg of a platinum catalyst (trade name: CAT-PL-50T, available from Shin-Etsu Chemical Co., Ltd.) were added to 40 g of dimethyl sulfoxide to obtain a thermosetting composition solution. The solution was applied onto a glass substrate to give a cured film thickness of 0.1 μm, and then dried and cured at 150° C. for 10 minutes to obtain a degradable cross-linked product.

[5] = cured film immersed in 3% sodium hypochlorite aqueous solution

Row | SMILES | Solvent solubility, Isopropanol [1] | Solvent solubility, Methanol [1] | Solvent solubility, Methylisobutyl ketone [1] | Solvent solubility, N-methylpyrrolidone [1] | Solvent solubility, Propylene glycol monomethyl ether [1] | Solvent solubility, overall assessment in words [1] | Degradation of the compound by oxidizing agent [2] | Solubility of the degradable cross-linked product made with the compound ([3]; in water) | Degradation of the degradable cross-linked product made with the compound [4, 5] | Solvent solubility, overall assessment in words ([1]; listed as Example 8) | Solubility of the degradable cross-linked product made with the compound ([3]; in isopropanol and water) | Degradation of the degradable cross-linked product made with the compound ([4]; cured film immersed in 2-fold dilution of a 3% sodium hypochlorite aqueous solution with isopropanol) | Solvent solubility, overall assessment in words ([1]; listed as Example 9) | Solubility of the degradable cross-linked product made with the compound ([3]; in THF and water) | Degradation of the degradable cross-linked product made with the compound ([4]; cured film immersed in 3-fold dilution of a 3% sodium hypochlorite aqueous solution with THE)
1 | C=CCCC(=O)NNC(=O)CCCCCCCCC(=O)NNC(=O)OCC=C [Formula (A), reference compound] | 0 | 0 | 0 | 0 | 0 | poorly soluble in all the solvents | foaming and degradation of the compound were observed | insoluble | foaming and removal of the product from the substrate were observed | – | – | – | – | – | –
2 | C=CCNC(=O)NNC(=O)CCCCCCCCC(=O)NNC(=O)NCC=C [Formula (B)] | 1 | 2 | 0 | 3 | 0 | – | foaming and degradation of the compound were observed | insoluble | foaming and removal of the product from the substrate were observed | – | – | – | – | – | –
3 | C=CCOC(=O)NNC(=O)NCCCCCCNC(=O)NNC(=O)OCC=C [Formula (C)] | 1 | 2 | 0 | 3 | 2 | – | foaming and degradation of the compound were observed | insoluble | foaming and removal of the product from the substrate were observed | – | – | – | – | – | –
4 | C=CCOC(=O)NNC(=O)CCCCCCCCC(=O)NNC(=O)OCC=C [Formula (D)] | 3 | 3 | 2 | 3 | 3 | – | foaming and degradation of the compound were observed | insoluble | foaming and removal of the product from the substrate were observed | – | – | – | – | – | –
5 | C=CCOC(=O)NNC(=O)CCCO [Formula (G)] | 3 | 3 | 2 | 3 | 3 | – | foaming and degradation of the compound were observed | insoluble | foaming and removal of the product from the substrate were observed | – | – | – | – | – | –
6 | C=C(C)C(=O)OCCNC(=O)NNC(=O)c1cc(O)cc(O)c1 [Formula (I)] | 0 | 3 | 0 | 3 | 0 | – | foaming and degradation of the compound were observed | – | – | slightly less soluble than the compound of Example 3 but exhibited an acceptable level of solubility | insoluble | foaming and removal of the product from the substrate were observed | – | – | –
7 | O=C(CCS)NNC(=O)NCCCCCCNC(=O)N(CCCCCCNC(=O)NNC(=O)CCS)C(=O)NCCCCCCNC(=O)NNC(=O)CCS [Formula (J)] | 1 | 1 | 0 | 1 | 0 | – | foaming and degradation of the compound were observed | insoluble | foaming and removal of the product from the substrate were observed | – | – | – | slightly less soluble than the compound of Example 3 but exhibited an acceptable level of solubility | – | –
8 | C=CCOC(=O)NNC(=O)CCC(NC(=O)NNC(=O)CCCC(=O)NNC(=O)NC(CCC(=O)NNC(=O)OCC=C)C(=O)NNC(=O)OCC=C)C(=O)NNC(=O)OCC=C (stereo not drawn) [Formula (L)] | 1 | 2 | 1 | 3 | 3 | – | foaming and degradation of the compound were observed | insoluble | foaming and removal of the product from the substrate were observed | – | – | – | – | – | –
9 | O=C(CCCCCOC(=O)NNC(=O)OCCO)NNC(=O)c1cccc(C(=O)NNC(=O)CCCCCOC(=O)NNC(=O)OCCO)c1 [Formula (M)] | 0 | 3 | 0 | 3 | 3 | – | foaming and degradation of the compound were observed | – | – | – | – | – | – | insoluble | foaming and removal of the product from the substrate were observed
